Assays:
Assay type in all cases: binding
[1] = target: kinases (KINOMEscan panel) (Homo sapiens, UniProt Q15759)
[2] = target: kinases (KINOMEscan panel) (Homo sapiens, UniProt P42336); details: kinase PIK3CA; NEW KINOMEscan
[3] = target: kinases (KINOMEscan panel) (Homo sapiens, UniProt P24941); details: CDK2; NEW KINOMEscan
[4] = target: kinases (KINOMEscan panel) (Homo sapiens, UniProt Q2M2I8); details: AAK1; NEW KINOMEscan
[5] = target: kinases (KINOMEscan panel) (Homo sapiens, UniProt Q9H3Y6); details: NEW KINOMEscan
kinases (KINOMEscan panel) (Homo sapiens, UniProt Q9H3Y6), sequence (Q9H3Y6 whole entry): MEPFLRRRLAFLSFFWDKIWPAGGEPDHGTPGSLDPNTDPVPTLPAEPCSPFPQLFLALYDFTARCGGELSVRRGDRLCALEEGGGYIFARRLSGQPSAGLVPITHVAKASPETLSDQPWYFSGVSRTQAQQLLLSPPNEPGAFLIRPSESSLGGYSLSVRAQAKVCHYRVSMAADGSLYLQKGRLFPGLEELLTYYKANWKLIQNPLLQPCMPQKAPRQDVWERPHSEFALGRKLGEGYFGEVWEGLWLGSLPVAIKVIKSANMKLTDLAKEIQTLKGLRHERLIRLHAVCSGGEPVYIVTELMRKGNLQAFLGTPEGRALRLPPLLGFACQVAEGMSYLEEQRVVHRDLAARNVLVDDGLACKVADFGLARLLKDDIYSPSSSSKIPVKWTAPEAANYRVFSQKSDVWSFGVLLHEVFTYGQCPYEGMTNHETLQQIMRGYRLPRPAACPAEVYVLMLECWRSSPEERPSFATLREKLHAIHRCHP

[6] = target: T1, kinases (KINOMEscan panel) (Homo sapiens, UniProt Q56UN5); details: NEW KINOMEscan
T1 sequence (Q56UN5 1-1328): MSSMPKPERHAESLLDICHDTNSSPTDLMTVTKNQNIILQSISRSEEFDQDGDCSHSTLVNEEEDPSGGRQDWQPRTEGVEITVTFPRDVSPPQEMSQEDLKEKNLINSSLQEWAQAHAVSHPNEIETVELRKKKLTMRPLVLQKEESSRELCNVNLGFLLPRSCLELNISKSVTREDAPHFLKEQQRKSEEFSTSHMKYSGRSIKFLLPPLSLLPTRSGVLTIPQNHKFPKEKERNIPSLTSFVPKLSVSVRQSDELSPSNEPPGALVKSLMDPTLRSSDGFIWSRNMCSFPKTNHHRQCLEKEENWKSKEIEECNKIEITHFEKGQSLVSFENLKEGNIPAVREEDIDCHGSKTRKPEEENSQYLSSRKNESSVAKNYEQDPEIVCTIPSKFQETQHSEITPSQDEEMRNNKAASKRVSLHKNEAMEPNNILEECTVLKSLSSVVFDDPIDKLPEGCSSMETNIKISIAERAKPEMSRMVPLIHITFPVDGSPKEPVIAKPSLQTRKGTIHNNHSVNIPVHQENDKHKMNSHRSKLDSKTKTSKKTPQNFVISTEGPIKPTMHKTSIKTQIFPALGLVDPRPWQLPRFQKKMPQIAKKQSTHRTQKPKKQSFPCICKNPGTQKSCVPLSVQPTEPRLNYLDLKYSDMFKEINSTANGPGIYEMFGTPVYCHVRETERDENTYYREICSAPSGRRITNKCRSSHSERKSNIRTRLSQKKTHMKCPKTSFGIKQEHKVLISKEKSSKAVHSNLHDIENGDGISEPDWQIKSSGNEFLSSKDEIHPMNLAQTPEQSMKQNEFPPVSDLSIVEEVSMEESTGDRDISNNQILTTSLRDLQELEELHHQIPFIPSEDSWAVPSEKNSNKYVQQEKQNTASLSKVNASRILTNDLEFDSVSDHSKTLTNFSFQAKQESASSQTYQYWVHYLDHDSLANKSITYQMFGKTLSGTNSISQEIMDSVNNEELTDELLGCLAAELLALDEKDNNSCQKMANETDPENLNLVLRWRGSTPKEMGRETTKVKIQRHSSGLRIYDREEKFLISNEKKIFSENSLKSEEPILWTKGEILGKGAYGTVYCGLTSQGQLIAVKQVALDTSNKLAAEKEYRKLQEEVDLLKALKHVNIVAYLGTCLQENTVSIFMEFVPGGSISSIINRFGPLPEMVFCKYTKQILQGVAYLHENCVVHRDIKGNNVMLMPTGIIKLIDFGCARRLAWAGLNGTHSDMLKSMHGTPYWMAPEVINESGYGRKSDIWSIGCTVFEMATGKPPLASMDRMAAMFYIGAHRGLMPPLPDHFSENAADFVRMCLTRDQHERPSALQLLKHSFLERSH

[7] = target: kinases (KINOMEscan panel) (Homo sapiens, UniProt P53667); details: kinase LIMK1; NEW KINOMEscan
kinases (KINOMEscan panel) (Homo sapiens, UniProt P53667), sequence (P53667 whole entry): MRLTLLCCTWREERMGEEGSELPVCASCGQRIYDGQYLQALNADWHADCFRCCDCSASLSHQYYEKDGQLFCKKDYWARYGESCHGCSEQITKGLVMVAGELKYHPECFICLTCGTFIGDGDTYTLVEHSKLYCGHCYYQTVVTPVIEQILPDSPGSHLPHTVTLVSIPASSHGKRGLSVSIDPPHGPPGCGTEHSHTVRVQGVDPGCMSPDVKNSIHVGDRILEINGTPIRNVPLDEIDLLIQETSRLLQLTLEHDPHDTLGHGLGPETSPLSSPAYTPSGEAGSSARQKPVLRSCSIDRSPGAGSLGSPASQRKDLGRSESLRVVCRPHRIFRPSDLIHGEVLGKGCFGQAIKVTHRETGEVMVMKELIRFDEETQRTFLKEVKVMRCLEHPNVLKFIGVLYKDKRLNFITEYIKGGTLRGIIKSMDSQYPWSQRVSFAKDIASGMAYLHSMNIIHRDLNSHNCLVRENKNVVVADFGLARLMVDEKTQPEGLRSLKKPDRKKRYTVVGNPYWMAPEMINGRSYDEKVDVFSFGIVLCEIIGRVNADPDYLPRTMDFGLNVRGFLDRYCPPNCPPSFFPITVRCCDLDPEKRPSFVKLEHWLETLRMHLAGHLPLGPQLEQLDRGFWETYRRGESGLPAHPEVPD

[8] = target: T2, kinases (KINOMEscan panel) (Homo sapiens, UniProt Q9Y2U5); details: MAP3K2; NEW KINOMEscan
T2 sequence (Q9Y2U5 1-619): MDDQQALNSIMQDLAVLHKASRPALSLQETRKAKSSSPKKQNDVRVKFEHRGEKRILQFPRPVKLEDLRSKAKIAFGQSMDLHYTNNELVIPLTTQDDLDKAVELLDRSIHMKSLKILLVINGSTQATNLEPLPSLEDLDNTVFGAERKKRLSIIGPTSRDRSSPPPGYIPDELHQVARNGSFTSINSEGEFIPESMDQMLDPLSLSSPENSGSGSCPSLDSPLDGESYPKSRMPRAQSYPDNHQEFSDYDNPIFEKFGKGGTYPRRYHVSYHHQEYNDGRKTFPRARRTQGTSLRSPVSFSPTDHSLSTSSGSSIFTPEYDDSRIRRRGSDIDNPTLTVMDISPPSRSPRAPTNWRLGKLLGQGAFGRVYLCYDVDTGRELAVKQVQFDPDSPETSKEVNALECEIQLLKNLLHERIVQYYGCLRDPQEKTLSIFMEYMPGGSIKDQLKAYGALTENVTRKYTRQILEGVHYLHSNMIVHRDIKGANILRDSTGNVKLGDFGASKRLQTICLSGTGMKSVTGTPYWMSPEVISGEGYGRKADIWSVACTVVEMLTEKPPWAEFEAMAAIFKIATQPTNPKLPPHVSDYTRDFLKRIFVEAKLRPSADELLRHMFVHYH

[9] = target: kinases (KINOMEscan panel) (Homo sapiens, UniProt P00519, H396P); details: NEW KINOMEscan
[10] = target: kinases (KINOMEscan panel) (Homo sapiens, UniProt P36888, K663Q); details: kinase FLT3(K663Q); NEW KINOMEscan
[11] = target: kinases (KINOMEscan panel) (Homo sapiens, UniProt P06239); details: LCK; NEW KINOMEscan
kinases (KINOMEscan panel) (Homo sapiens, UniProt P06239), sequence (P06239 whole entry): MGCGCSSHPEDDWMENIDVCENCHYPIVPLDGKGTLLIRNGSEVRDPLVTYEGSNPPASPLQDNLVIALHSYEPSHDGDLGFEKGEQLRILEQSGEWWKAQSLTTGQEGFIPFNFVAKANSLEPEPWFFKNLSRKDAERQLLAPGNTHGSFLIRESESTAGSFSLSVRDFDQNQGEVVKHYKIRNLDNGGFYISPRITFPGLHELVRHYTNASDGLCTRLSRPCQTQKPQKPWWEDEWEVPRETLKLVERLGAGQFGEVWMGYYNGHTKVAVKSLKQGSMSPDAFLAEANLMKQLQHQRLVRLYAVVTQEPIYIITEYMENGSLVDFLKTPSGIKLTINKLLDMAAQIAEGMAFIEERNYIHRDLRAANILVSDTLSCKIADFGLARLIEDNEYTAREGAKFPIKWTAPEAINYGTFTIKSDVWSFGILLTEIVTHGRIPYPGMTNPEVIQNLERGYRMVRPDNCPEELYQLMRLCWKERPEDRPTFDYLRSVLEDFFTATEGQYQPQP

[12] = target: kinases (KINOMEscan panel) (Homo sapiens, UniProt P36888, D835H); details: kinase FLT3(D835H); NEW KINOMEscan

kinases (KINOMEscan panel) (Homo sapiens, UniProt Q2M2I8), sequence (Q2M2I8 whole entry): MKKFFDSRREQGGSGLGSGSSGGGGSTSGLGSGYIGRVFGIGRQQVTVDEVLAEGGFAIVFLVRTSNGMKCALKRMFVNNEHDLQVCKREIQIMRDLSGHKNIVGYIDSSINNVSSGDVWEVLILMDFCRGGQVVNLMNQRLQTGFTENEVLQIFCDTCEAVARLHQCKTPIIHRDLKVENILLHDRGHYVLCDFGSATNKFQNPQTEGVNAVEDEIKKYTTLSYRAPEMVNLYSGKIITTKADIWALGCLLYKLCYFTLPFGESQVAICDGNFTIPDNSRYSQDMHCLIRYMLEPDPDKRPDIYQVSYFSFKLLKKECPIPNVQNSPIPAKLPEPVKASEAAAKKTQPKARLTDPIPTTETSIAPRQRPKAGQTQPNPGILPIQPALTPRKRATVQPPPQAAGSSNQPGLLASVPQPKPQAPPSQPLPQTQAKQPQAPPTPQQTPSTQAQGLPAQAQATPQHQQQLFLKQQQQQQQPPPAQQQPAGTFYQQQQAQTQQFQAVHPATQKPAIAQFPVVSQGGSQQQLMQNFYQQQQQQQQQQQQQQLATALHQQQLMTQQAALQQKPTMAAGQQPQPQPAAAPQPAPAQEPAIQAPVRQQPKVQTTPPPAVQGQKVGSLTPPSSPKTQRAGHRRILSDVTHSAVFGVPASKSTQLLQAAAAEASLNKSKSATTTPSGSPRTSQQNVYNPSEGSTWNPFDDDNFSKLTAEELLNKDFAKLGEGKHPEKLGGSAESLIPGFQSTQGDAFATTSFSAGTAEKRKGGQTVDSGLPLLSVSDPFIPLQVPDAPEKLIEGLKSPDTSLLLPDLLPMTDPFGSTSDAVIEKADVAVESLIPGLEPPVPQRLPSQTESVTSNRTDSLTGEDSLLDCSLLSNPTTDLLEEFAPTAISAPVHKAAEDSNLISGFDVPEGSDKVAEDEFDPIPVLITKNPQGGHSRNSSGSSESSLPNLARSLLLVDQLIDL
kinases (KINOMEscan panel) (Homo sapiens, UniProt Q15759), sequence (Q15759 whole entry): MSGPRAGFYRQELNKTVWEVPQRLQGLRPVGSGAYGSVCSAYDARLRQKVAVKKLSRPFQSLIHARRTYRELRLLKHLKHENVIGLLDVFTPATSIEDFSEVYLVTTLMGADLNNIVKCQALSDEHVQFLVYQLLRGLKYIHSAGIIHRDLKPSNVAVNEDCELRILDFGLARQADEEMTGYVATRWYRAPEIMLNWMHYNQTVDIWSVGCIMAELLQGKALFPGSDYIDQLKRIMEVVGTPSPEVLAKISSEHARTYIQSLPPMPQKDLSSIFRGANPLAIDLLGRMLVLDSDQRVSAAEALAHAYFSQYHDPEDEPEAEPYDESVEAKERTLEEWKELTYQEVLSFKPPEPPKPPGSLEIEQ
kinases (KINOMEscan panel) (Homo sapiens, UniProt P42336), sequence (P42336 whole entry): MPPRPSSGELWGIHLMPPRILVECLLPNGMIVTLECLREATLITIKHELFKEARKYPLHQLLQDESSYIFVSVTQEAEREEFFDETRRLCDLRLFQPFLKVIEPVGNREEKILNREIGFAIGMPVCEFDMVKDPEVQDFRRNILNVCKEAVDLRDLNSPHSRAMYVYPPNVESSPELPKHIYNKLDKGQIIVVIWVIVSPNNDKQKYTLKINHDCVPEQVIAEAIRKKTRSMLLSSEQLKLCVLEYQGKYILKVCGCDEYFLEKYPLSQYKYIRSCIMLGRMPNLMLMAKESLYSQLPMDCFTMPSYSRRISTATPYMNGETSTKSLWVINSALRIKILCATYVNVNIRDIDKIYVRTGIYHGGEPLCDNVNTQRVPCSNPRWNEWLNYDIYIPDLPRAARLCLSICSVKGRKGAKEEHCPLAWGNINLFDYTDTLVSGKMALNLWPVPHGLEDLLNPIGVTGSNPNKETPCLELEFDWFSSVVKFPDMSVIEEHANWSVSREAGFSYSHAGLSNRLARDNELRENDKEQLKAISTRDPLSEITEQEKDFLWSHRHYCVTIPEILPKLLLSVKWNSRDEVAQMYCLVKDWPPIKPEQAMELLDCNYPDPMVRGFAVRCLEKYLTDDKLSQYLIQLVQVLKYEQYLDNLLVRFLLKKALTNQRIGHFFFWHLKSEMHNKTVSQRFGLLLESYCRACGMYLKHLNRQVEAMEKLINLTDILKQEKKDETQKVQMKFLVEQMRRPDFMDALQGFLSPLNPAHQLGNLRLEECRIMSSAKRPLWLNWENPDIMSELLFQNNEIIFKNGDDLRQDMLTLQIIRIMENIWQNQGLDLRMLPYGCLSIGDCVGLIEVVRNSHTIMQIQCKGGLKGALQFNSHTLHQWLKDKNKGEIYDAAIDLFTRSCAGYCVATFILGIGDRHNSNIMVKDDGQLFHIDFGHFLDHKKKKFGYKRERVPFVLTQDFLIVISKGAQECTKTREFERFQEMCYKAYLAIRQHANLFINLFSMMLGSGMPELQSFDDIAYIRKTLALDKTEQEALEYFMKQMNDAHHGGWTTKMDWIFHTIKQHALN

SMILES | KINOMEscan MAPK11/p38-beta [1] | KINOMEscan PIK3CA [2] | KINOMEscan CDK2 [3] | KINOMEscan AAK1 [4] | KINOMEscan SRMS [5] | KINOMEscan MAP3K19 [6] | KINOMEscan LIMK1 [7] | KINOMEscan MAP3K2 [8] | KINOMEscan ABL1(H396P)-nonphosphorylated [9] | KINOMEscan ABL1(H396P)-phosphorylated [9] | KINOMEscan FLT3(K663Q) [10] | KINOMEscan LCK [11] | KINOMEscan FLT3(D835H) [12]
Cc1cccc(-c2nc(N(C)c3ccc4ncsc4c3)c3ccccc3n2)n1 [NK-161] | 1 | 0 | 0 | 5 | 26 | 0 | 0 | 0 | 0 | 0 | 0 | 2 | 4
Cc1cccc(-c2nc(Nc3ccc4nn(C)cc4c3)c3ccccc3n2)n1 [NK167] | 12 | 0 | 0 | 1 | 21 | 0 | 0 | 0 | 4 | 0 | 0 | 0 | 0

From publication PMC9851200, “Multiparameter phenotypic screening for endogenous TFEB and TFE3 translocation identifies novel chemical series modulating lysosome function” (Autophagy, 2022)
